From patent US7923450B2, “Modulators for amyloid beta” (Hoffmann-La Roche Inc., priority 2008, dated 2011)

Assays:
[1] = system: γ-secretase; assay: Cellular γ-secretase assay (Aβ42 secretion); format: cell-based; settings: inhibition of Aβ42 secretion; human neuroglioma H4 cells overexpressing human APP; 22 hrs incubation; read-out: EC50 in vitro
Description: Cellular γ-Secretase Assay
Human neuroglioma H4 cells overexpressing human APP were plated at 30,000 cells/well/200 μl in 96-well plates in IMDM media containing 10% FCS, 0.2 mg/l Hygromycin B and incubated for 2 h at 37° C., 5% CO2 prior to adding test compounds.
Compounds for testing were dissolved in 100% Me2SO yielding in a 10 mM stock solution. Typically 12 μl of these solutions were further diluted in 1000 μl of IMDM media (w/o FCS,). Sub sequential 1:1 dilutions gave a ten point dose response curve. 100 μl of each dilution was added to the cells in 96-well plates. Appropriate controls using vehicle only and reference compound were applied to this assay. The final concentration of Me2SO was 0.4%.
After incubation for 22 hrs at 37° C., 5% CO2, 50 μl supernatant was transferred into round-bottom 96-well polypropylene plates for detection of Aβ42. 50 μl assay buffer (50 mM Tris/Cl, pH 7.4, 60 mM NaCl, 0.5% BSA, 1% TWEEN 20) was added to the wells followed by the addition of 100 μl of detection antibody (ruthenylated Aβ42-specific antibody BAP15 0.0625 μg/mL in assay buffer). 50 μl of a premix of capture antibody (biotinylated 6E10 antibody, 1 μg/mL) and Steptavidin-coated magnetic beads (Dynal M-280, 0.125 mg/mL) were preincubated for 1 hr at room temperature before adding the assay plates. Assay plates were incubated on a shaker for 3 hrs at room temperature and finally read in the Bioveris M8 Analyser according to the manufacturer's instructions (Bioveris).
EC50 values for inhibition of Aβ42 secretion were calculated by nonlinear regression fit analysis using XLfit 4.0 software (IDBS).

Structure (SMILES)	EC50 [1] [nM]	melting point [°C]
COc1cc(Nc2ncc3c(n2)C(c2ccc(Cl)cc2)CCC3)ccc1-n1cnc(C)c1 (stereo not shown) [Example 50, [8-(4-Chloro-phenyl)-5,6,7,8-tetrahydro-quinazolin-2-yl]-[3-methoxy-4-(4-methyl-imidazol-1-yl)-phenyl]-amine]	380	210 to 212
Cc1cn(-c2ccc(Nc3nc4c(s3)CCCC4c3ccccc3Cl)cc2F)cn1 (stereo not shown) [Example 33, [4-(2-Chloro-phenyl)-4,5,6,7-tetrahydro-benzothiazol-2-yl]-[3-fluoro-4-(4-methyl-imidazol-1-yl)-phenyl]-amine]	430	204 to 206
Cc1cn(-c2ccc(Nc3nc4c(s3)CCCC4c3ccc(Cl)cc3Cl)cc2F)cn1 (stereo not shown) [Example 36, [4-(2,4-Dichloro-phenyl)-4,5,6,7-tetrahydro-benzothiazol-2-yl]-[3-fluoro-4-(4-methyl-imidazol-1-yl)-phenyl]-amine]	460	136 to 139
COc1ccccc1C1CCCc2sc(Nc3ccc(-n4cnc(C)c4)c(F)c3)nc21 (stereo not shown) [Example 35, [3-Fluoro-4-(4-methyl-imidazol-1-yl)-phenyl]-[4-(2-methoxy-phenyl)-4,5,6,7-tetrahydro-benzothiazol-2-yl]-amine]	340	227 to 230
Cc1cn(-c2ccc(Nc3ncc4c(n3)C(c3ccc(F)cc3)CCC4)cc2F)cn1 (stereo not shown) [Example 60, [3-Fluoro-4-(4-methyl-imidazol-1-yl)-phenyl]-[8-(4-fluoro-phenyl)-5,6,7,8-tetrahydro-quinazolin-2-yl]-amine]	500	201 to 203
COc1cc(Nc2nc3c(s2)CCCC3(C)c2ccccc2)ccc1-n1cnc(C)c1 (stereo not shown) [Example 30, [3-Methoxy-4-(4-methyl-imidazol-1-yl)-phenyl]-(4-methyl-4-phenyl-4,5,6,7-tetrahydro-benzothiazol-2-yl)-amine]	300	123 to 126
Cc1cn(-c2ccc(Nc3nc4c(s3)CCCC4c3ccc(C)c(C(F)(F)F)c3)cc2F)cn1 (stereo not shown) [Example 32, [3-Fluoro-4-(4-methyl-imidazol-1-yl)-phenyl]-[4-(4-methyl-3-trifluoromethyl-phenyl)-4,5,6,7-tetrahydro-benzothiazol-2-yl]-amine]	260	160 to 163
COc1cc(Nc2ncc3c(n2)C(C(=O)N2CCCC2)CCC3)ccc1-n1cnc(C)c1 (stereo not shown) [Example 87, {2-[3-Methoxy-4-(4-methyl-imidazol-1-yl)-phenylamino]-5,6,7,8-tetrahydro-quinazolin-8-yl}-pyrrolidin-1-yl-methanone]		94 to 95
Cc1cn(-c2ccc(Nc3ncc4c(n3)C(C)(c3ccccc3)CCC4)cc2F)cn1 (stereo not shown) [Example 56, [3-Fluoro-4-(4-methyl-imidazol-1-yl)-phenyl]-(8-methyl-8-phenyl-5,6,7,8-tetrahydro-quinazolin-2-yl)-amine]		157 to 158
COc1cc(Nc2ncc3c(n2)C(c2cc(Cl)ccc2Cl)CCCC3)ccc1-n1cnc(C)c1 (stereo not shown) [Example 62, [9-(2,5-Dichloro-phenyl)-6,7,8,9-tetrahydro-5H-cycloheptapyrimidin-2-yl]-[3-methoxy-4-(4-methyl-imidazol-1-yl)-phenyl]-amine]		218 to 220
COc1cc(Nc2ncc3c(n2)C(c2ccccn2)CCC3)ccc1-n1cnc(C)c1 (stereo not shown) [Example 84, [3-Methoxy-4-(4-methyl-imidazol-1-yl)-phenyl]-(8-pyridin-2-yl-5,6,7,8-tetrahydro-quinazolin-2-yl)-amine]		181 to 183
Cc1cn(-c2ccc(Nc3nc4c(s3)CCCC4c3ccc(OC(F)(F)F)cc3)cc2F)cn1 (stereo not shown) [Example 34, [3-Fluoro-4-(4-methyl-imidazol-1-yl)-phenyl]-[4-(4-trifluoromethoxy-phenyl)-4,5,6,7-tetrahydro-benzothiazol-2-yl]-amine]		148 to 151
